Test results reported in the NIST ThermoML archive (doi:10.1021/acs.jced.5b00317).
Numbers after ± are expanded uncertainties.

Conditions: 101 kPa, Liquid, Sing-around technique in a fixed-path interferometer

O [water]
speed of sound (313.15 K): 1529.2 ± 0.77 m/s
speed of sound (318.15 K): 1536.8 ± 0.78 m/s
